Results as given in article PMC9516332 (Frontiers in Oncology, 2022).
Like-named read-outs stand apart in the source and are kept apart here.

Tested on: 134 cancer cell lines
Assay: Cell viability assay (ATPlite, 72 hours), IC50 on cancer cell line panel

C[C@H]1Oc2cc(cnc2N)-c2c(nn(C)c2C#N)CN(C)C(=O)c2ccc(F)cc21 [lorlatinib]
IC50 (Homo sapiens, LS-411N, read-out: IC50 in cell proliferation assay): 23.6 µM
IC50 (Homo sapiens, LoVo, read-out: IC50 in cell proliferation assay): > 31.6 µM
IC50 (Homo sapiens, MCF7, read-out: IC50 in cell proliferation assay): 17 µM
IC50 (Homo sapiens, MDA-MB-231, read-out: IC50 in cell proliferation assay): > 31.6 µM
IC50 (Homo sapiens, MDA-MB-453, read-out: IC50 in cell proliferation assay): > 31.6 µM
IC50 (Homo sapiens, MDA-MB-468, read-out: IC50 in cell proliferation assay): > 31.6 µM
IC50 (Homo sapiens, MG-63, read-out: IC50 in cell proliferation assay): 8.74 µM
IC50 (Homo sapiens, MIA PaCa-2, read-out: IC50 in cell proliferation assay): > 31.6 µM
IC50 (Homo sapiens, MKN-45, read-out: IC50 in cell proliferation assay): > 31.6 µM
IC50 (Homo sapiens, MOLM-13, read-out: IC50 in cell proliferation assay): 21.1 µM
IC50 (Homo sapiens, MOLT-4, read-out: IC50 in cell proliferation assay): 6.72 µM
IC50 (Homo sapiens, MV4-11, read-out: IC50 in cell proliferation assay): 15.6 µM
IC50 (Homo sapiens, MeWo, read-out: IC50 in cell proliferation assay): > 31.6 µM
IC50 (Homo sapiens, NCCIT, read-out: IC50 in cell proliferation assay): > 31.6 µM
IC50 (Homo sapiens, NCI-H82, read-out: IC50 in cell proliferation assay): 6.06 µM
IC50 (Homo sapiens, NCI-H460, read-out: IC50 in cell proliferation assay): 18.4 µM
IC50 (Homo sapiens, NCI-H661, read-out: IC50 in cell proliferation assay): 6.73 µM
IC50 (Homo sapiens, NCI-H716, read-out: IC50 in cell proliferation assay): 9.52 µM
IC50 (Homo sapiens, NCI-H1650, read-out: IC50 in cell proliferation assay): 23.9 µM
IC50 (Homo sapiens, NCI-H1975, read-out: IC50 in cell proliferation assay): 9.89 µM
IC50 (Homo sapiens, NCI-H2228, read-out: IC50 in cell proliferation assay): 0.000918 µM
IC50 (Homo sapiens, OVCAR-3, read-out: IC50 in cell proliferation assay): > 31.6 µM
IC50 (Homo sapiens, PFSK-1, read-out: IC50 in cell proliferation assay): 7.69 µM
IC50 (Homo sapiens, RL95-2, read-out: IC50 in cell proliferation assay): 0.035 µM
IC50 (Homo sapiens, RPMI-7951, read-out: IC50 in cell proliferation assay): 0.818 µM
IC50 (Homo sapiens, RS4-11, read-out: IC50 in cell proliferation assay): 11.2 µM
IC50 (Homo sapiens, Rec1, read-out: IC50 in cell proliferation assay): 8.26 µM
IC50 (Homo sapiens, SHP77, read-out: IC50 in cell proliferation assay): > 31.6 µM
IC50 (Homo sapiens, SK-BR-3, read-out: IC50 in cell proliferation assay): > 31.6 µM
IC50 (Homo sapiens, SK-N-AS, read-out: IC50 in cell proliferation assay): > 31.6 µM
IC50 (Homo sapiens, SK-N-FI, read-out: IC50 in cell proliferation assay): 21.5 µM
IC50 (Homo sapiens, SK-N-MC, read-out: IC50 in cell proliferation assay): 6.17 µM
IC50 (Homo sapiens, SK-N-SH, read-out: IC50 in cell proliferation assay): 5.69 µM
IC50 (Homo sapiens, SNU-5, read-out: IC50 in cell proliferation assay): > 31.6 µM
IC50 (Homo sapiens, SNU-16, read-out: IC50 in cell proliferation assay): 31.5 µM
IC50 (Homo sapiens, SNU-C2B, read-out: IC50 in cell proliferation assay): > 31.6 µM
IC50 (Homo sapiens, SU-DHL-1, read-out: IC50 in cell proliferation assay): 0.008 µM
IC50 (Homo sapiens, SU-DHL-6, read-out: IC50 in cell proliferation assay): 24.1 µM
IC50 (Homo sapiens, SUP-T1, read-out: IC50 in cell proliferation assay): 23.2 µM
IC50 (Homo sapiens, SW48, read-out: IC50 in cell proliferation assay): 8.62 µM
IC50 (Homo sapiens, SW480, read-out: IC50 in cell proliferation assay): > 31.6 µM
IC50 (Homo sapiens, SW626, read-out: IC50 in cell proliferation assay): 8.56 µM
IC50 (Homo sapiens, SW780, read-out: IC50 in cell proliferation assay): 16 µM
IC50 (Homo sapiens, SW837, read-out: IC50 in cell proliferation assay): > 31.6 µM
IC50 (Homo sapiens, SW872, read-out: IC50 in cell proliferation assay): 6.65 µM
IC50 (Homo sapiens, SW900, read-out: IC50 in cell proliferation assay): 15.1 µM
IC50 (Homo sapiens, SW948, read-out: IC50 in cell proliferation assay): 17 µM
IC50 (Homo sapiens, SW982, read-out: IC50 in cell proliferation assay): 0.052 µM
IC50 (Homo sapiens, SW-620, read-out: IC50 in cell proliferation assay): 17 µM
IC50 (Homo sapiens, T98G, read-out: IC50 in cell proliferation assay): 11.4 µM
IC50 (Homo sapiens, TCC-SUP, read-out: IC50 in cell proliferation assay): > 31.6 µM
IC50 (Homo sapiens, THP-1, read-out: IC50 in cell proliferation assay): > 31.6 µM
IC50 (Homo sapiens, U2OS, read-out: IC50 in cell proliferation assay): 8.64 µM
IC50 (Homo sapiens, U-87 MG, read-out: IC50 in cell proliferation assay): > 31.6 µM
IC50 (Homo sapiens, U-118-MG, read-out: IC50 in cell proliferation assay): > 31.6 µM
IC50 (Homo sapiens, UMUC3, read-out: IC50 in cell proliferation assay): > 31.6 µM
IC50 (Hs766T, read-out: IC50 in cell proliferation assay): > 31.6 µM
IC50 (L-82, read-out: IC50 in cell proliferation assay): 0.00122 µM
IC50 (Rh30, read-out: IC50 in cell proliferation assay): 9.22 µM
